Target: T1, YAP-TEAD interaction (Homo sapiens, UniProt P28347)
T1 construct: expressed in transfected cells; host or cells: HEK293 GripTite 293 MSR (Invitrogen R795-07)
Test: Cell-based TEAD-GAL4 transactivation assay (luciferase reporter)
Details: HEK293 cells transfected with TEAD1-Gal4, YAP mutant (S127A, S397A) and luciferase reporter, compounds 0.1 μM to 30 μM; for Emax: HEK293, 24 h, read-out: TEAD-GAL4 Transactivation activity Max Act; for IC50: 24 h
Protocol: To identify inhibitors of YAP-TEAD interaction, a transient transactivation assay was carried out on HEK293 cell line (HEK293 GripTite™ 293 MSR (Invitrogen R795-07)) using plasmids containing the full length TEAD1 sequences, the full length YAP mutant (S127A, S397A) and a luciferase gene reporter. All expression constructs were performed into a pSG5 backbone plasmid in which the SV40 promoter was replaced by the CMV promoter. The TEAD1 construct was prepared by cloning the full-length human TEAD1 cDNA in fusion with the Gal4 DNA Binding Domain (AA 1-148) into pSG5_CMV to create the TEAD1 (FL)_hum_pSG5Gal4_CMV. The full-length YAP mutant (S127A, S397A) was also cloned into pSG5_CMV to create the YAP (FL)_hum_pSG5_mutS127A_S397A_CMV. The reporter plasmid GAL4(5×RE)_TK(−105/+56)_pGL3-Basic contains 5 copies of the GAL4 responsive element (5′-TCGGAGGACAGTACTCC-3′) upstream of the thymidine kinase (TK) promoter (−105/+56) inserted in a pGL3-Basic vector. To evaluate the selectivity of our compounds in blocking the YAP-TEAD interaction, a counter-screening protein-protein interaction transactivation assay was also established. Briefly, two other expression plasmids, the pBD-P53 which expresses the P53 (AA 72-390) in fusion with Gal4 and the pAD-SV40T which expresses the SV40 large T antigen (AA 84-708,AgT), were created. HEK293 cells were seeded at 5×10^4 cells/well in 96 well plates (assay plates) in DMEM medium containing 4.5 g/L D-glucose, 10% high inactivated (HI) fetal bovine serum 1% Glutamax, 1% non-essential amino acid and 1% sodium pyruvate and 0.5% penicillin/streptomycin at 37° C. in a humidified atmosphere of 8% CO2. After 24 h, transfections were performed using Jet-PEI as transfectant (101B-010 Polyplus Transfection), according to the instructions of the manufacturer (N/P=10) and a ratio YAP/TEAD=10 (per well: 50 ng of YAP(FL), 5 ng of TEAD(FL) and 50 ng of reporter plasmid). Six hours after cell transfection, the plates (‘assay plate’) were washed with 100 μl PBS per well and cells were treated with compounds in semi-log from 0.1 μM to 30 μM or DMSO 0.5% as control in DMEM, 4.5 g/L D-Glucose without phenol red, 0.3% BSA, 1% glutamax, 1% NEAA, 1% sodium pyruvate. 24 h later, the luciferase activity was determined after addition of 100 μl of Steady Glo™ luciferase assay system (Promega E2550) according to the manufacturer's directions. Luciferase activity in cell extracts was measured by reading luminescence using the Envision device.
The cellular response was determined by fitting the concentration response curves using a 3-parameter curve fit equation and determining the concentration that inhibited the luciferase activity by 50%.

T1 sequence (P28347 whole entry): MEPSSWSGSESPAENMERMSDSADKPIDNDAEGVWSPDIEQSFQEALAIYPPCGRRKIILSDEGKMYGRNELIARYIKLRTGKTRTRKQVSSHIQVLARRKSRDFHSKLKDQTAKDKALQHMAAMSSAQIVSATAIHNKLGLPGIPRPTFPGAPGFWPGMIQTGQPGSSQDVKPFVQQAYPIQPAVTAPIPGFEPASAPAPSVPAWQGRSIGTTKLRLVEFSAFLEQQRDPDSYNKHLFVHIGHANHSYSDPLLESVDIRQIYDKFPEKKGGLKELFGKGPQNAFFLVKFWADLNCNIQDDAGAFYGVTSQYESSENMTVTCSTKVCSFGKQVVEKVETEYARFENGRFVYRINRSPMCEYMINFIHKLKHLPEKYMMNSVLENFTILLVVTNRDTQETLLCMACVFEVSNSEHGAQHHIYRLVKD

SMILES: CCN(/N=C/c1ccc(B(O)O)c(OC)c1)C1=NS(=O)(=O)c2ccccc21 [Ex 4, [4-[(E)-[(1,1-dioxo-1,2-benzothiazol-3-yl)-ethyl-hydrazono]methyl]-2-methoxy-phenyl] boronic acid]
- Emax: 76%
- IC50: 6.16 µM

SMILES: COCCN(/N=C/c1ccc(B(O)O)c(OC)c1)C1=NS(=O)(=O)c2ccccc21 [Ex 5, [4-[(E)-[(1,1-dioxo-1,2-benzothiazol-3-yl)-(2-methoxyethyl)-hydrazono]methyl]-2-methoxy-phenyl]boronic acid]
- Emax: 67%
- IC50: 7.1 µM

SMILES: CC(C)CN(/N=C/c1ccc(B(O)O)c(Cl)c1)C1=NS(=O)(=O)c2ccccc21 [Ex 6, [2-chloro-4-[(E)-[(1,1-dioxo-1,2-benzothiazol-3-yl)-isobutyl-hydrazono]methyl]phenyl] boronic acid]
- Emax: 62%

SMILES: COc1cc(/C=N/N(CC(C)C)C2=NS(=O)(=O)c3ccc(C)cc32)ccc1B(O)O [Ex 7, [4-[(E)-[isobutyl-(5-methyl-1,1-dioxo-1,2-benzothiazol-3-yl)hydrazono]-methyl]-2-methoxy-phenyl]boronic acid]
- Emax: 95%
- IC50: 3.43 µM

SMILES: CC(C)CN(/N=C/c1ccc(B(O)O)cc1)C1=NS(=O)(=O)c2ccccc21 [Ex 8, [4-[(E)-[(1,1-dioxo-1,2-benzothiazol-3-yl)-isobutyl-hydrazono]methyl]-phenyl] boronic acid]
- Emax: 74%

SMILES: COCCOc1ccc2c(c1)C(N(CC(C)C)/N=C/c1ccc(B(O)O)c(OC)c1)=NS2(=O)=O [Ex 9, [4-[(E)-[isobutyl-[5-(2-methoxyethoxy)-1,1-dioxo-1,2-benzothiazol-3-yl]hydrazono]methyl]-2-methoxy-phenyl]boronic acid]
- Emax: 98%
- IC50: 2.33 µM

SMILES: COc1cc(/C=N/N(CC(C)C)C2=NS(=O)(=O)c3cc(C#N)ccc32)ccc1B(O)O [Ex 10, [4-[(E)-[(6-cyano-1,1-dioxo-1,2-benzothiazol-3-yl)-isobutyl-hydrazono]-methyl]-2-methoxy-phenyl]boronic acid]
- Emax: 78%
- IC50: 4.36 µM

SMILES: COCCOc1cc(/C=N/N(CC(C)C)C2=NS(=O)(=O)c3ccccc32)ccc1B(O)O [Ex 11, [4-[(E)-[(1,1-dioxo-1,2-benzothiazol-3-yl)-isobutyl-hydrazono]methyl]-2-(2-methoxyethoxy)phenyl]boronic acid]
- Emax: 85%

SMILES: COc1cc(/C=N/N(CC(C)C)C2=NS(=O)(=O)c3ccc(OCCCO)cc32)ccc1B(O)O [Ex 12, [4-[(E)-[[5-(3-hydroxypropoxy)-1,1-dioxo-1,2-benzothiazol-3-yl]-isobutyl-hydrazono]methyl]-2-methoxy-phenyl]boronic acid]
- Emax: 98%
- IC50: 2.97 µM

SMILES: COc1cc(/C=N/N(CC(C)C)c2ncnc3c(OC)cccc23)ccc1B(O)O [Ex 13, [4-[(E)-[isobutyl-(8-methoxyquinazolin-4-yl)hydrazono]methyl]-2-methoxy-phenyl] boronic acid]
- Emax: 95%
- IC50: 5.78 µM

SMILES: CCOc1cc(/C=N/N(CC(C)C)C2=NS(=O)(=O)c3ccccc32)ccc1B(O)O [Ex 14, [4-[(E)-[(1,1-dioxo-1,2-benzothiazol-3-yl)-isobutyl-hydrazono]methyl]-2-ethoxyphenyl]boronic acid]
- Emax: 90%

SMILES: COc1cc(OC)c2c(c1)C(N(CC(C)C)/N=C/c1ccc(B(O)O)c(Cl)c1)=NS2(=O)=O [Ex 15, [2-chloro-4-[(E)-[(5,7-dimethoxy-1,1-dioxo-1,2-benzothiazol-3-yl)-isobutyl-hydrazono]methyl]phenyl]boronic acid]
- Emax: 95%

SMILES: CCC(C)N(/N=C/c1ccc(B(O)O)c(OC)c1)C1=NS(=O)(=O)c2ccccc21 (stereo not drawn) [Ex 16, [4-[(E)-[(1,1-dioxo-1,2-benzothiazol-3-yl)-sec-butyl-hydrazono]methyl]-2-methoxyphenyl]boronic acid]
- Emax: 76%
- IC50: 4.16 µM

SMILES: COc1cc(OC)c2ncnc(N(CC(C)C)/N=C/c3ccc(B(O)O)c(OC)c3)c2c1 [Ex 17, [4-[(E)-[(6,8-dimethoxyquinazolin-4-yl)-isobutyl-hydrazono]methyl]-2-methoxyphenyl]boronic acid]
- Emax: 98%
- IC50: 7.74 µM

SMILES: COc1cc(/C=N/N(CC(C)C)c2ncnc3cc(F)ccc23)ccc1B(O)O [Ex 18, [4-[(E)-[(7-fluoroquinazolin-4-yl)-isobutyl-hydrazono]methyl]-2-methoxyphenyl] boronic acid]
- Emax: 80%
- IC50: 2.18 µM

SMILES: COc1ccc2ncnc(N(CC(C)C)/N=C/c3ccc(B(O)O)c(OC)c3)c2c1 [Ex 19, [4-[(E)-[isobutyl-(6-methoxyquinazolin-4-yl)hydrazono]methyl]-2-methoxyphenyl] boronic acid]
- Emax: 97%
- IC50: 3.36 µM

SMILES: CCN(/N=C/c1ccc(B(O)O)c(OC)c1)c1ncnc2c(OC)cccc12 [Ex 21, [4-[(E)-[ethyl-(8-methoxyquinazolin-4-yl)hydrazono]methyl]-2-methoxy-phenyl]boronic acid]
- Emax: 90%
- IC50: 1.77 µM

SMILES: COc1cc(/C=N/N(C)c2ncnc3c(OC)cccc23)ccc1B(O)O [Ex 22, [2-methoxy-4-[(E)-[(8-methoxyquinazolin-4-yl)-methyl-hydrazono]-methyl]phenyl]boronic acid]
- Emax: 97%
- IC50: 2.57 µM

SMILES: CC(C)CN(/N=C/c1ccc2c(c1)COB2O)C1=NS(=O)(=O)c2ccccc21 [Ex 23, N-[(E)-(1-hydroxy-3H-2,1-benzoxaborol-5-yl)methyleneamino]-N-isobutyl-1,1-dioxo-1,2-benzothiazol-3-amine]
- Emax: 88%
- IC50: 3.11 µM

SMILES: COCCCN(/N=C/c1ccc2c(c1)COB2O)C1=NS(=O)(=O)c2ccccc21 [Ex 25, N-[(E)-(1-hydroxy-3H-2,1-benzoxaborol-5-yl)methyleneamino]-N-(3-methoxypropyl)-1,1-dioxo-1,2-benzothiazol-3-amine]
- Emax: 78%
- IC50: 2.78 µM

SMILES: CN(/N=C/c1ccc2c(c1)COB2O)C1=NS(=O)(=O)c2ccccc21 [Ex 26, N-[(E)-(1-hydroxy-3H-2,1-benzoxaborol-5-yl)methyleneamino]-N-methyl-1,1-dioxo-1,2-benzothiazol-3-amine]
- Emax: 78%
- IC50: 3.41 µM

SMILES: CC(C)CN(/N=C/c1ccc2c(c1)COB2O)C1=NS(=O)(=O)c2ccc(F)cc21 [Ex 28, 5-fluoro-N-[(E)-(1-hydroxy-3H-2,1-benzoxaborol-5-yl)methyleneamino]-N-isobutyl-1,1-dioxo-1,2-benzothiazol-3-amine]
- Emax: 90%
- IC50: 2.75 µM

SMILES: Cc1ccc2c(c1)C(N(CC(C)C)/N=C/c1ccc3c(c1)COB3O)=NS2(=O)=O [Ex 29, N-[(E)-(1-hydroxy-3H-2,1-benzoxaborol-5-yl)methyleneamino]-N-isobutyl-5-methyl-1,1-dioxo-1,2-benzothiazol-3-amine]
- Emax: 91%

SMILES: COc1ccc2c(c1)S(=O)(=O)N=C2N(CC(C)C)/N=C/c1ccc2c(c1)COB2O [Ex 30, N-[(E)-(1-hydroxy-3H-2,1-benzoxaborol-5-yl)methyleneamino]-N-isobutyl-6-methoxy-1,1-dioxo-1,2-benzothiazol-3-amine]
- Emax: 86%
- IC50: 3.84 µM

SMILES: COc1cccc2c(N(CC(C)C)/N=C/c3ccc4c(c3)COB4O)ncnc12 [Ex 32, N-[(E)-(1-hydroxy-3H-2,1-benzoxaborol-5-yl)methyleneamino]-N-isobutyl-8-methoxy-quinazolin-4-amine]
- Emax: 86%
- IC50: 1.59 µM

SMILES: COc1cccc2c(N(C)/N=C/c3ccc4c(c3)COB4O)ncnc12 [Ex 33, N-[(E)-(1-hydroxy-3H-2,1-benzoxaborol-5-yl)methyleneamino]-8-methoxy-N-methyl-quinazolin-4-amine]
- Emax: 86%
- IC50: 4 µM

SMILES: CCN(/N=C/c1ccc2c(c1)COB2O)c1ncnc2c(OC)cccc12 [Ex 34, N-ethyl-N-[(E)-(1-hydroxy-3H-2,1-benzoxaborol-5-yl)methyleneamino]-8-methoxy-quinazolin-4-amine]
- Emax: 81%
- IC50: 1.12 µM

From patent US11999758B2, “Inhibitors of the YAP/TAZ-TEAD interaction and their use in the treatment of cancer” (INVENTIVA, priority 2018, dated 2024)
